Reference: PubChem BioAssay AID1963424 (Molecular Pharmacology Branch, DTP, NCI, 2024)
Several values for one entry are separate records, joined by “and”; a condition that tells them apart may be missing. Identical values can stand only once.

Test system: 327498-153-R-J2-PDC complex spheroid growth, % test/control
Assay: Anticancer human tumor 327498-153-R-J2-PDC patient-derived uterine carcinosarcoma cell line growth inhibition [Asc]
Details: for viability, T/C: stronger effect = lower value
Procedure, shortened: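 Complex solid-tumor spheroids incorporating human endothelial and mesenchymal stem cells received single agents or combinations over half-log dilution ranges anchored to clinical Cmax.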

[1] = curve of first compound, second compound 0.03 µM
[2] = curve of first compound, second compound 0.0949 µM
[3] = curve of first compound, second compound 0.3 µM
[4] = curve of first compound, second compound 0.949 µM
[5] = curve of first compound, second compound 3 µM
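Note: spheroids exposed to compound for 7 days after 3 days of growth.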
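Throughout, for viability, T/C: 100% = DMSO vehicle control wells.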

NC(=O)C(=Cn1cnc(-c2cc(C(F)(F)F)cc(C(F)(F)F)c2)n1)c1cncnc1
viability, T/C (compound 0.000949 µM): 89.1% and 91.1% and 101% | viability, T/C (compound 0.003 µM): 102% and 93.5% and 96.2% | viability, T/C (compound 0.00949 µM): 83.6% and 84.6% and 93.2% | viability, T/C (compound 0.03 µM): 71.5% and 61.5% and 78% | viability, T/C (compound 0.0949 µM): 14.8% and 17.4% and 17.2% | viability, T/C (compound 0.3 µM): 3.13% and 3.94% | IC50 (curve of compound): 45.9 nM and 40.1 nM and 50.9 nM

CCN1C(C(=O)NC23CCC(C(=O)O)(CC2)CC3)C(c2cccc(Cl)c2F)C2(C(=O)Nc3cc(Cl)ccc32)C12CCCCC2 (configuration not stated)
viability, T/C (compound 0.00949 µM): 90.4% and 97.6% | viability, T/C (compound 0.03 µM): 88.7% [middle of 15 runs] | viability, T/C (compound 0.0949 µM): 74.7% [middle of 15 runs] | viability, T/C (compound 0.3 µM): 40.5% [middle of 15 runs] | viability, T/C (compound 0.949 µM): 11.1% [middle of 15 runs] | viability, T/C (compound 3 µM): 4% [middle of 15 runs] | IC50 (compound alone, run of 09/27/2022): 211 nM [middle of 13 runs] | IC50 (curve of compound): 174 nM and 252 nM

O=C(c1ccc(F)c(F)c1Nc1ccc(I)cc1F)N1CC(O)([C@@H]2CCCCN2)C1 + Cc1c(S(C)(=O)=O)c(-c2cc(F)cc(N3CCN(c4ccc(NS(=O)(=O)c5ccc(NC(CCN6CCC(C(=O)OCCCP(=O)(O)O)CC6)CSc6ccccc6)c(S(=O)(=O)C(F)(F)F)c5)cc4)CC3)c2)c(-c2ccc(Cl)cc2)n1C(C)C
IC50 (curve of first compound, second compound 0.1 µM): 277 nM | IC50 (curve of first compound, second compound 0.316 µM): 215 nM | IC50 (curve of first compound, second compound 1 µM): 196 nM | IC50 (curve of first compound, second compound 3.16 µM): 146 nM | IC50 (curve of first compound, second compound 10 µM): 458 nM | viability, T/C (second compound 0.1 µM, first compound 0.00316 µM): 92.1% | viability, T/C (second compound 0.1 µM, first compound 0.01 µM): 96.2% | viability, T/C (second compound 0.1 µM, first compound 0.0316 µM): 81.7% | viability, T/C (second compound 0.1 µM, first compound 0.1 µM): 67.3% | viability, T/C (second compound 0.1 µM, first compound 0.316 µM): 49% | viability, T/C (second compound 0.1 µM, first compound 1 µM): 18.4% | viability, T/C (second compound 0.316 µM, first compound 0.00316 µM): 91.5% | viability, T/C (second compound 0.316 µM, first compound 0.01 µM): 80.4% | viability, T/C (second compound 0.316 µM, first compound 0.0316 µM): 76.9% | viability, T/C (second compound 0.316 µM, first compound 0.1 µM): 62.9% | viability, T/C (second compound 0.316 µM, first compound 0.316 µM): 44.1% | viability, T/C (second compound 0.316 µM, first compound 1 µM): 14.6% | viability, T/C (second compound 1 µM, first compound 0.00316 µM): 98.6% | viability, T/C (second compound 1 µM, first compound 0.01 µM): 80.6% | viability, T/C (second compound 1 µM, first compound 0.0316 µM): 74.5% | viability, T/C (second compound 1 µM, first compound 0.1 µM): 58.7% | viability, T/C (second compound 1 µM, first compound 0.316 µM): 49% | viability, T/C (second compound 1 µM, first compound 1 µM): 12.9% | viability, T/C (second compound 3.16 µM, first compound 0.00316 µM): 91.5% | viability, T/C (second compound 3.16 µM, first compound 0.01 µM): 84.9% | viability, T/C (second compound 3.16 µM, first compound 0.0316 µM): 75.1% | viability, T/C (second compound 3.16 µM, first compound 0.1 µM): 56.4% | viability, T/C (second compound 3.16 µM, first compound 0.316 µM): 35.9% | viability, T/C (second compound 3.16 µM, first compound 1 µM): 15.4% | viability, T/C (second compound 10 µM, first compound 0.00316 µM): 170% | viability, T/C (second compound 10 µM, first compound 0.01 µM): 167% | viability, T/C (second compound 10 µM, first compound 0.0316 µM): 131% | viability, T/C (second compound 10 µM, first compound 0.1 µM): 97.9% | viability, T/C (second compound 10 µM, first compound 0.316 µM): 70.8% | viability, T/C (second compound 10 µM, first compound 1 µM): 17.1%

Cn1ncnc1[C@H]1c2n[nH]c(=O)c3cc(F)cc(c23)N[C@@H]1c1ccc(F)cc1 + CCN1C(C(=O)NC23CCC(C(=O)O)(CC2)CC3)C(c2cccc(Cl)c2F)C2(C(=O)Nc3cc(Cl)ccc32)C12CCCCC2
IC50 [1]: 6.09 nM | IC50 [2]: 2.66 nM | IC50 [3]: < 0.316 nM | IC50 [4]: < 0.316 nM | IC50 [5]: < 0.316 nM | viability, T/C (second compound 0.03 µM, first compound 0.000316 µM): 99.9% | viability, T/C (second compound 0.03 µM, first compound 0.001 µM): 90% | viability, T/C (second compound 0.03 µM, first compound 0.00316 µM): 70.8% | viability, T/C (second compound 0.03 µM, first compound 0.01 µM): 34.8% | viability, T/C (second compound 0.03 µM, first compound 0.0316 µM): 12.6% | viability, T/C (second compound 0.03 µM, first compound 0.1 µM): 6.28% | viability, T/C (second compound 0.0949 µM, first compound 0.000316 µM): 75.8% | viability, T/C (second compound 0.0949 µM, first compound 0.001 µM): 73.4% | viability, T/C (second compound 0.0949 µM, first compound 0.00316 µM): 45% | viability, T/C (second compound 0.0949 µM, first compound 0.01 µM): 17.4% | viability, T/C (second compound 0.0949 µM, first compound 0.0316 µM): 7.19% | viability, T/C (second compound 0.0949 µM, first compound 0.1 µM): 4.65% | viability, T/C (second compound 0.3 µM, first compound 0.000316 µM): 45.2% | viability, T/C (second compound 0.3 µM, first compound 0.001 µM): 28.2% | viability, T/C (second compound 0.3 µM, first compound 0.00316 µM): 16% | viability, T/C (second compound 0.3 µM, first compound 0.01 µM): 6.36% | viability, T/C (second compound 0.3 µM, first compound 0.0316 µM): 3.88% | viability, T/C (second compound 0.3 µM, first compound 0.1 µM): 3.44% | viability, T/C (second compound 0.949 µM, first compound 0.000316 µM): 5.73% | viability, T/C (second compound 0.949 µM, first compound 0.001 µM): 7.29% | viability, T/C (second compound 0.949 µM, first compound 0.00316 µM): 3.58% | viability, T/C (second compound 0.949 µM, first compound 0.01 µM): 1.98% | viability, T/C (second compound 0.949 µM, first compound 0.0316 µM): 2.28% | viability, T/C (second compound 0.949 µM, first compound 0.1 µM): 1.93% | viability, T/C (second compound 3 µM, first compound 0.000316 µM): 3.13% | viability, T/C (second compound 3 µM, first compound 0.001 µM): 8.85% | viability, T/C (second compound 3 µM, first compound 0.00316 µM): 2.79% | viability, T/C (second compound 3 µM, first compound 0.01 µM): 2.59% | viability, T/C (second compound 3 µM, first compound 0.0316 µM): 1.49% | viability, T/C (second compound 3 µM, first compound 0.1 µM): 2.35%

Cc1nc(N2CCC3(CC2)COC(C)C3N)c(CO)nc1Sc1ccnc(N)c1Cl (configuration not stated) + CCN1C(C(=O)NC23CCC(C(=O)O)(CC2)CC3)C(c2cccc(Cl)c2F)C2(C(=O)Nc3cc(Cl)ccc32)C12CCCCC2
IC50 [1]: 242 nM | IC50 [2]: 48.4 nM | IC50 [3]: < 9.49 nM | IC50 [4]: < 9.49 nM | IC50 [5]: < 9.49 nM | viability, T/C (second compound 0.03 µM, first compound 0.00949 µM): 79.9% | viability, T/C (second compound 0.03 µM, first compound 0.03 µM): 74.8% | viability, T/C (second compound 0.03 µM, first compound 0.0949 µM): 64.1% | viability, T/C (second compound 0.03 µM, first compound 0.3 µM): 44% | viability, T/C (second compound 0.03 µM, first compound 0.949 µM): 41% | viability, T/C (second compound 0.03 µM, first compound 3 µM): 30.3% | viability, T/C (second compound 0.0949 µM, first compound 0.00949 µM): 57% | viability, T/C (second compound 0.0949 µM, first compound 0.03 µM): 58% | viability, T/C (second compound 0.0949 µM, first compound 0.0949 µM): 41.3% | viability, T/C (second compound 0.0949 µM, first compound 0.3 µM): 27.8% | viability, T/C (second compound 0.0949 µM, first compound 0.949 µM): 22.2% | viability, T/C (second compound 0.0949 µM, first compound 3 µM): 15.7% | viability, T/C (second compound 0.3 µM, first compound 0.00949 µM): 30.7% | viability, T/C (second compound 0.3 µM, first compound 0.03 µM): 24.3% | viability, T/C (second compound 0.3 µM, first compound 0.0949 µM): 13.7% | viability, T/C (second compound 0.3 µM, first compound 0.3 µM): 12.3% | viability, T/C (second compound 0.3 µM, first compound 0.949 µM): 8.52% | viability, T/C (second compound 0.3 µM, first compound 3 µM): 6.36% | viability, T/C (second compound 0.949 µM, first compound 0.00949 µM): 6.38% | viability, T/C (second compound 0.949 µM, first compound 0.03 µM): 6.83% | viability, T/C (second compound 0.949 µM, first compound 0.0949 µM): 2.73% | viability, T/C (second compound 0.949 µM, first compound 0.3 µM): 11.8% | viability, T/C (second compound 0.949 µM, first compound 0.949 µM): 2.12% | viability, T/C (second compound 0.949 µM, first compound 3 µM): 2.01% | viability, T/C (second compound 3 µM, first compound 0.00949 µM): 2.07% | viability, T/C (second compound 3 µM, first compound 0.03 µM): 2.17% | viability, T/C (second compound 3 µM, first compound 0.0949 µM): 2.3% | viability, T/C (second compound 3 µM, first compound 0.3 µM): 2.57% | viability, T/C (second compound 3 µM, first compound 0.949 µM): 0.76% | viability, T/C (second compound 3 µM, first compound 3 µM): 0.83%

Cc1nc(N2CCC3(CC2)COC(C)C3N)c(CO)nc1Sc1ccnc(N)c1Cl (configuration not stated)
viability, T/C (compound 0.00949 µM): 98.2% and 101% and 93% | viability, T/C (compound 0.03 µM): 94% and 88.4% and 87.5% | viability, T/C (compound 0.0949 µM): 86.9% and 73.2% and 77% | viability, T/C (compound 0.3 µM): 76.2% and 64.7% and 71.6% | viability, T/C (compound 0.949 µM): 65.4% and 58.5% and 56.2% | viability, T/C (compound 3 µM): 49.8% and 40.1% and 52.5% | IC50 (curve of compound): > 3000 nM and 1400 nM
